Tests used:
Type in all cases: cell-based
NK1R F264Y M291F [1] = molecular target: T1, NK1R F264Y M291F (Homo sapiens, UniProt P25103, F264Y/M291F); assay: BRET-based cAMP assay (Gs); conditions: COS-7, COS7 cells, CAMYEL BRET sensor, four-parameter fit, mean ± SEM of three independent experiments
T1 construct: host or cells: COS7
Experimental: (§1) COS7 cells were tested monthly for mycoplasma and kept negative. COS7 cells were plated in either clear, white, or white with clear bottom 96-well plates that were coated with poly-D-lysine (Sigma-Aldrich) 30 min prior to cell seeding (20,000 cells/well). The following day plates were transiently transfected using calcium precipitation with 200 ng/well DNA in a culture medium with the addition of 100μM (final concentration) chloroquine. Transfection was stopped 5 h later with the addition of a fresh maintenance medium. Fig. […] The intracellular level of cAMP was monitored in real-time using BRET. This was achieved by implementing a construct consisting of a cAMP binding protein (exchange protein activated by cAMP [EPAC]) which has been flanked by a BRET pair consisting of Rluc and yellow fluorescent protein. This construct is called CAMYEL (cAMP sensor using yellow fluorescent protein-EPAC-Rluc) and enables cAMP production to be sensed as EPAC changes conformation in response to increasing levels of cAMP, ultimately resulting in a loss of BRET signal. […] The BRET signal was calculated as the ratio of emission intensity at 535 nm (citrine) to the emission intensity at 475 nm (luciferase). […] All dose-response curves have been calculated using Prism 10 software (GraphPad Software, www.graphpad.com) nonlinear regression with four parameters. […]

NK1R M291F [2] = molecular target: T2, NK1R M291F (Homo sapiens, UniProt P25103, M291F); assay: BRET-based cAMP assay (Gs); conditions: COS-7, COS7 cells, CAMYEL BRET sensor, four-parameter fit, mean ± SEM of three independent experiments
T2 construct: host or cells: COS7
Experimental: as §1

NK1R F264Y = molecular target: T3, NK1R F264Y (Homo sapiens, UniProt P25103, F264Y); assay: IP3 accumulation assay (Gq); conditions: COS-7, COS7 cells, [3H]inositol, 10 mM LiCl, 150 min 37 °C, mean ± SEM of three independent experiments
T3 construct: host or cells: COS7
Experimental: (§2) COS7 cells were tested monthly for mycoplasma and kept negative. COS7 cells were plated in either clear, white, or white with clear bottom 96-well plates that were coated with poly-D-lysine (Sigma-Aldrich) 30 min prior to cell seeding (20,000 cells/well). The following day plates were transiently transfected using calcium precipitation with 200 ng/well DNA in a culture medium with the addition of 100μM (final concentration) chloroquine. Transfection was stopped 5 h later with the addition of a fresh maintenance medium. Fig. […] COS7 cells seeded in clear 96-well plates were incubated with 0.5 μCi/ml myo [3H]inositol (Perkin Elmer) in 100 μl growth medium overnight following the transfection. The subsequent day cells were washed twice with 200 μl/well HBSS (GIBCO, Life Technologies) and preincubated for 5 min at 37 °C with 100 μl/well HBSS buffer supplemented with 10 mM LiCl. Ligand addition was followed by 150 min incubation at 37 °C. To stop ligand incubation, cells were lysed with 40 μl 10 mM formic acid followed by 30 min incubation on ice. Thirty five microliters of the lysate was transferred to white 96-well plates together with 60 μl of 1:8 diluted YSi SPA scintillation beads (Perkin Elmer). Plates were sealed and vigorously shaken for 15 min, followed by 5 min centrifugation at 1500 rpm. Measurements (scintillation) were recorded on a Microbeta (PerkinElmer) after a 4 h delay and determinations were made in duplicates. All dose-response curves have been calculated using Prism 10 software (GraphPad Software, www.graphpad.com) nonlinear regression with four parameters. All data are shown as mean ± SEM unless stated otherwise and consist of two technical replicates from three biological replicates.

NK1R F264Y M291F [3] = molecular target: T1, NK1R F264Y M291F; assay: IP3 accumulation assay (Gq); conditions: COS-7, COS7 cells, [3H]inositol, 10 mM LiCl, 150 min 37 °C, mean ± SEM of three independent experiments
Experimental: as §2

NK1R M291F [4] = molecular target: T2, NK1R M291F; assay: IP3 accumulation assay (Gq); conditions: COS-7, COS7 cells, [3H]inositol, 10 mM LiCl, 150 min 37 °C, mean ± SEM of three independent experiments
Experimental: as §2

T1 sequence (P25103 whole entry F264Y/M291F): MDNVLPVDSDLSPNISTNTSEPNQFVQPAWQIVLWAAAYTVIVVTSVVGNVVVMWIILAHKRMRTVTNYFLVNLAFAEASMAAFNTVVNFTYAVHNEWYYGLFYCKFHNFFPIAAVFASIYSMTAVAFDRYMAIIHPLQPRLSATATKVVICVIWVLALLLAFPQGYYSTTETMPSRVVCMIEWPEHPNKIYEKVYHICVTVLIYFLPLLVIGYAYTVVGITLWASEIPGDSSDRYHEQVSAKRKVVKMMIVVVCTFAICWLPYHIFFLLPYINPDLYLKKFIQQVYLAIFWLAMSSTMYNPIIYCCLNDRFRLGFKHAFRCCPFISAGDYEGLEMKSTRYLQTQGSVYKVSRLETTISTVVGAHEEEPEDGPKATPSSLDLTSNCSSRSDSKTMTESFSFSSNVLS
T2 sequence (P25103 whole entry M291F): as the sequence (P25103 whole entry F264Y/M291F) above, with Y264F counted along it
T3 sequence (P25103 whole entry F264Y): as the sequence (P25103 whole entry F264Y/M291F) above, with F291M counted along it

## CSCC[C@H](NC(=O)[C@H](CC(C)C)NC(=O)CNC(=O)[C@@H](NC(=O)[C@H](Cc1ccccc1)NC(=O)[C@H](CO)NC(=O)[C@H](CC(=O)O)NC(=O)[C@@H](NC(=O)[C@H](CCCCN)NC(=O)[C@@H](N)Cc1c[nH]cn1)[C@@H](C)O)C(C)C)C(N)=O [NKA, neurokinin A]
NK1R F264Y M291F [1]
  Emax: 125%
NK1R M291F [2]
  Emax: 99.9%
NK1R F264Y
  Emax: 105 ± 6.3%
NK1R F264Y M291F [3]
  Emax: 102 ± 11%
NK1R M291F [4]
  Emax: 102 ± 12.7%

Reference: publication PMC11625327, “Molecular determinants of neuropeptide-mediated activation mechanisms in tachykinin NK1 and NK2 receptors” (The Journal of Biological Chemistry, 2024)
